Test results reported in patent US8785400B2, “Methods and compositions relating to islet cell neogenesis” (CureDM Group Holdings, LLC, priority 2006, dated 2014).

Experiments:
[1] = test system: human cell cultures (mixed islets and ductal tissue cultures); assay: Insulin content by RIA, mixed human islet and ductal cultures (Example 2); assay type: cell-based; conditions: vs HIP1, HIP, hamster INGAP, saline; FIG. 3
Procedure: HIP2, HIP1, HIP, controls and progenitor fractions were cultured over 10 days, according to standard protocol. Briefly, pancreata from adult human cadaveric organ donors were obtained through the local organ procurement organization. Islets were isolated according to established protocols described by Bonner-Weir and Jamal. (Bonner-Weir et al. Pediatric Diabetes: 2004; 5 (Suppl 2): 16-22. Jamal et al. Cell Death Differ. 2005 July; 12(7): 702-12). HIP2, HIP1, HIP and INGAP were synthesized by Bachem Bioscience, Malvern, Pa. and were quality tested by HPCL to be greater than 95% pure. Each peptide was provided in lyophilized powder and was resuspended in isotonic saline solution. Stock solutions were made so that only 1-2 ul aliquots were added to primary cell cultures to reach the final concentrations provided below. Stock solutions were frozen and thawed a total of three times for the six day treatment. […]
Pancreata from adult human cadaveric organ donors were obtained through the local organ procurement organization. […] Free islets with diameters ranging from 75 to 400 μm, determined to be greater than 90% pure by staining with dithizone (Sigma) a zinc chelater, were collected and washed. […]
Insulin levels were detected by Radioimmunoassay (RIA) from cultures treated with saline only (s/0), HIP2, HIP1, HIP and hamster INGAP. […]

[2] = test system: human pancreatic islet tissue cultures; assay: Insulin production by ELISA, human islet tissue cultures (Example 3); assay type: cell-based; conditions: vs SEQ ID NO:1 and SEQ ID NO:5
Procedure: Samples are 0.002 μg total protein in duplicate and measured by ELISA assay.
Values are mean insulin units (of duplicate samples) as measured by ELISA assay.
Human pancreatic tissue was treated as described in Example 1 and Insulin production was measured by ELISA assay. FIGS. 5 and 6 show the results of this experiment to show a dose response and to again compare the effect of HIP2 on the two different fractions of tissue as compared to the hamster INGAP sequence and a scrambled negative peptide sequence. […] The results in FIG. 5 were generated using 5 μg of each peptide, while the results in FIG. 6 were acquired using 0.002 μg of each peptide.

HIP2: Human proIslet Peptide, fragment of human REG3A, in purified, synthetic, or recombinant form (SEQ ID NO:4) (IGLHDPTQGTEPNG; Fragment of naturally occurring human REG3 protein)
increased bioactivity over the other agents used (insulin, RIA) [1]: 1.50-3.33 fold | insulin production (FIG. 6) ([2]; after 10 days, Rosenberg protocol, 0.002 μg): increased insulin production | insulin production (FIG. 8A) ([2]; two concentrations (3 μM and 1 mM)): increased insulin production
